What was measured:
H^+,K^+-ATPase D137E = molecular target: T1, H^+,K^+-ATPase D137E (Sus scrofa, UniProt P19156, D138E); assay: ATPase assay, D137E mutant; format: biochemical, pig
T1 construct: made in house; host or cells: HEK293S GnT1- cells (BacMam baculovirus transduction), membrane fraction

H^+,K^+-ATPase D136F = H^+,K^+-ATPase D136F (Sus scrofa, UniProt P19156, D137F); assay: ATPase assay, D136F mutant
H^+,K^+-ATPase D137A = H^+,K^+-ATPase D137A (Sus scrofa, UniProt P19156, D138A); assay: ATPase assay, D137A mutant
H^+,K^+-ATPase D137F = H^+,K^+-ATPase D137F (Sus scrofa, UniProt P19156, D138F); assay: ATPase assay, D137F mutant
H^+,K^+-ATPase N138I = H^+,K^+-ATPase N138I (Sus scrofa, UniProt P19156, N139I); assay: ATPase assay, N138I mutant
H^+,K^+-ATPase L139I = H^+,K^+-ATPase L139I (Sus scrofa, UniProt P19156, L140I); assay: ATPase assay, L139I mutant
H^+,K^+-ATPase L139F = H^+,K^+-ATPase L139F (Sus scrofa, UniProt P19156, L140F); assay: ATPase assay, L139F mutant
H^+,K^+-ATPase Y140A = H^+,K^+-ATPase Y140A (Sus scrofa, UniProt P19156, Y141A); assay: ATPase assay, Y140A mutant
H^+,K^+-ATPase Y140L = H^+,K^+-ATPase Y140L (Sus scrofa, UniProt P19156, Y141L); assay: ATPase assay, Y140L mutant
H^+,K^+-ATPase Y140I = H^+,K^+-ATPase Y140I (Sus scrofa, UniProt P19156, Y141I); assay: ATPase assay, Y140I mutant
H^+,K^+-ATPase L141I = H^+,K^+-ATPase L141I (Sus scrofa, UniProt P19156, L142I); assay: ATPase assay, L141I mutant
H^+,K^+-ATPase A125S = H^+,K^+-ATPase A125S (Sus scrofa, UniProt P19156, A126S); assay: ATPase assay, A125S mutant
H^+,K^+-ATPase A125F = H^+,K^+-ATPase A125F (Sus scrofa, UniProt P19156, A126F); assay: ATPase assay, A125F mutant
H^+,K^+-ATPase Q127F = H^+,K^+-ATPase Q127F (Sus scrofa, UniProt P19156, Q128F); assay: ATPase assay, Q127F mutant
H^+,K^+-ATPase D137N = H^+,K^+-ATPase D137N (Sus scrofa, UniProt P19156, D138N); assay: ATPase assay, D137N mutant
H^+,K^+-ATPase A335V = H^+,K^+-ATPase A335V (Sus scrofa, UniProt P19156, A336V); assay: ATPase assay, A335V mutant
H^+,K^+-ATPase Y799A = H^+,K^+-ATPase Y799A (Sus scrofa, UniProt P19156, Y800A); assay: ATPase assay, Y799A mutant
H^+,K^+-ATPase V331F = H^+,K^+-ATPase V331F (Sus scrofa, UniProt P19156, V332F); assay: ATPase assay, V331F mutant
H^+,K^+-ATPase M334F = H^+,K^+-ATPase M334F (Sus scrofa, UniProt P19156, M335F); assay: ATPase assay, M334F mutant
H^+,K^+-ATPase L796F = H^+,K^+-ATPase L796F (Sus scrofa, UniProt P19156, L797F); assay: ATPase assay, L796F mutant
[1] = molecular target: H^+,K^+-ATPase A335C/C813A (Sus scrofa, UniProt P19156, A336C/C814A); assay: ATPase assay, A335C/C813A mutant

Sequence of H^+,K^+-ATPase D137N (P19156 whole entry D138N): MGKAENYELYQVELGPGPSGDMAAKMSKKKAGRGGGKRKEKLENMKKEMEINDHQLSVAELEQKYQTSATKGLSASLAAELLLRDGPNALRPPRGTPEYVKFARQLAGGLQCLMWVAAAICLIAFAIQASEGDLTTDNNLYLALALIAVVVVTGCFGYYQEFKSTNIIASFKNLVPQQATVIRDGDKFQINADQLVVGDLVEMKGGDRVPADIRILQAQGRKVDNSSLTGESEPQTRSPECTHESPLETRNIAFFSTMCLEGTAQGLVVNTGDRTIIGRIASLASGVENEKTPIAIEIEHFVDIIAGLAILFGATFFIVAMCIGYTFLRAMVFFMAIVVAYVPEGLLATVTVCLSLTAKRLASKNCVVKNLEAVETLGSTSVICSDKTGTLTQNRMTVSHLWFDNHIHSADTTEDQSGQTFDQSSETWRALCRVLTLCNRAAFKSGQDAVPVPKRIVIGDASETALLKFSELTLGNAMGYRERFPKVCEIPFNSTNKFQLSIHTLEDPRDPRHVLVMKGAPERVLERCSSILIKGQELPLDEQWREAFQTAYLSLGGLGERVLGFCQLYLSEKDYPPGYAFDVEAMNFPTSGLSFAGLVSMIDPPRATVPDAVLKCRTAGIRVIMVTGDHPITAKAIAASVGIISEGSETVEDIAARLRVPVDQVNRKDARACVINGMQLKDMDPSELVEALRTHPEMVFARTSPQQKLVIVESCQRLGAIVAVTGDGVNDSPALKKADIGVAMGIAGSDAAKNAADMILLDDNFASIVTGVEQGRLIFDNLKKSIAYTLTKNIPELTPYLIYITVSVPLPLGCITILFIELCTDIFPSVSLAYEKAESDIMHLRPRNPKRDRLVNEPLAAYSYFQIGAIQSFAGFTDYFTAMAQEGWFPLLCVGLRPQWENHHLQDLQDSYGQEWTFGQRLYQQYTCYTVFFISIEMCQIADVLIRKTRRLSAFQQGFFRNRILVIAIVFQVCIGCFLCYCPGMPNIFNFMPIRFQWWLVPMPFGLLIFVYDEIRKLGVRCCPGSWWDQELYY
Sequence of H^+,K^+-ATPase D137N (P18434 whole entry partner): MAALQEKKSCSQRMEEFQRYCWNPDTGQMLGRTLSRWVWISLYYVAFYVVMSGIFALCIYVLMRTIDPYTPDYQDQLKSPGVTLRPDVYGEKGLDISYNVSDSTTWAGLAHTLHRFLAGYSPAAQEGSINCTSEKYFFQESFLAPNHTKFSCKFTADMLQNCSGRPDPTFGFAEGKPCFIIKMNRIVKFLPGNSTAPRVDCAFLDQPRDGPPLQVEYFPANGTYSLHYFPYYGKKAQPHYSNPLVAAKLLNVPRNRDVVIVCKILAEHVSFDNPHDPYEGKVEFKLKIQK
Sequence of H^+,K^+-ATPase M334F (P19156 whole entry M335F): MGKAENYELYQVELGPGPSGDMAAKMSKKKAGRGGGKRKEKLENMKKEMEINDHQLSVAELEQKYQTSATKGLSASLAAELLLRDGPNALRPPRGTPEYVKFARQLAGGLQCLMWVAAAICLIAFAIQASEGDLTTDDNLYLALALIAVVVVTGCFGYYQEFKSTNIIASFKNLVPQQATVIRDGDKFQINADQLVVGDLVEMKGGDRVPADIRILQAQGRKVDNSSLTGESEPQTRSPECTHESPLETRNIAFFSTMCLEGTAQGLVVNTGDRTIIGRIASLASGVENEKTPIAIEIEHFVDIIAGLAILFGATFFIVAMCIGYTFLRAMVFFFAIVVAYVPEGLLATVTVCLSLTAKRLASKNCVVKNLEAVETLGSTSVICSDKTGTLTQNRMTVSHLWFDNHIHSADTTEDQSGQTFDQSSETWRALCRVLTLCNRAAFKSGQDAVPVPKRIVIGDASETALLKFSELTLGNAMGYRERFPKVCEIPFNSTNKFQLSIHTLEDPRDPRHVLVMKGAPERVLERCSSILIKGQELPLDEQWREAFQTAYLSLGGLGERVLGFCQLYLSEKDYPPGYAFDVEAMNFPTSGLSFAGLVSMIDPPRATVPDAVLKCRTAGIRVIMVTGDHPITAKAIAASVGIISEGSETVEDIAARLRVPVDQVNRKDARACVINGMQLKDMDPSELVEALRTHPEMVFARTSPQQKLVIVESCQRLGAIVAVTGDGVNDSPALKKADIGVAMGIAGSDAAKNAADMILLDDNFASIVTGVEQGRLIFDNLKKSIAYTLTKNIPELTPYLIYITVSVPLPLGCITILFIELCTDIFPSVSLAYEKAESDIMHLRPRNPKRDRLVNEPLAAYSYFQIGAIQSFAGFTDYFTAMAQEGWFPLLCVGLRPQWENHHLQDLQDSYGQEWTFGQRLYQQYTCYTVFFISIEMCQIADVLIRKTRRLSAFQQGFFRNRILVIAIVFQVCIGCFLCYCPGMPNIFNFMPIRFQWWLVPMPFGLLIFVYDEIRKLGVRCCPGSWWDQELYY
Sequence of H^+,K^+-ATPase M334F (P18434 whole entry partner): as the sequence (P18434 whole entry partner) above
Sequence of H^+,K^+-ATPase L139I (P19156 whole entry L140I): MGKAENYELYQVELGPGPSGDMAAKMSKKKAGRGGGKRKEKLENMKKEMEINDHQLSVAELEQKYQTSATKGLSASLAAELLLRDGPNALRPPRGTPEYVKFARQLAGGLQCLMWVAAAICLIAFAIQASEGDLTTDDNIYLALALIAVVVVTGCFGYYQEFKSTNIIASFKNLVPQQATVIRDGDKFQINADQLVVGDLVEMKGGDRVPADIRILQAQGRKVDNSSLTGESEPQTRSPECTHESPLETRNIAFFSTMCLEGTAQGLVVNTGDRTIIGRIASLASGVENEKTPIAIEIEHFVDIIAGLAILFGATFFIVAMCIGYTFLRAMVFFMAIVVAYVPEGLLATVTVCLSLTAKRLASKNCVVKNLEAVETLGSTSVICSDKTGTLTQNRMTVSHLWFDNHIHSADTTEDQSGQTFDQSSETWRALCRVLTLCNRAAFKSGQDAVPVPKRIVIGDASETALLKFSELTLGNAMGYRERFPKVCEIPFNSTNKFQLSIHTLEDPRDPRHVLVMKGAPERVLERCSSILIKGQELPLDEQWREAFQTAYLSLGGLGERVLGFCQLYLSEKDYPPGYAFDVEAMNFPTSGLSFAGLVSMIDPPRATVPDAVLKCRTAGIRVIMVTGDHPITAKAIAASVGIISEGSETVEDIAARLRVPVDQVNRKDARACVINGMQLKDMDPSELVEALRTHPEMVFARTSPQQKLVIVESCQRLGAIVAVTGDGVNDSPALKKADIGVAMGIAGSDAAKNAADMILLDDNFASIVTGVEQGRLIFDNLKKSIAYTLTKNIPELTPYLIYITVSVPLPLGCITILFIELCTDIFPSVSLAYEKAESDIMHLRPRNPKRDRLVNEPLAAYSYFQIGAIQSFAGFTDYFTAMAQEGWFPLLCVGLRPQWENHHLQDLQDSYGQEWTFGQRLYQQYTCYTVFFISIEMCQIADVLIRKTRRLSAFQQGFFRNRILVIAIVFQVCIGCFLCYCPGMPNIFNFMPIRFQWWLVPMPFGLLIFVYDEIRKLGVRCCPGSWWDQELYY
Sequence of H^+,K^+-ATPase L139I (P18434 whole entry partner): as the sequence (P18434 whole entry partner) above
Sequence of H^+,K^+-ATPase L796F (P19156 whole entry L797F): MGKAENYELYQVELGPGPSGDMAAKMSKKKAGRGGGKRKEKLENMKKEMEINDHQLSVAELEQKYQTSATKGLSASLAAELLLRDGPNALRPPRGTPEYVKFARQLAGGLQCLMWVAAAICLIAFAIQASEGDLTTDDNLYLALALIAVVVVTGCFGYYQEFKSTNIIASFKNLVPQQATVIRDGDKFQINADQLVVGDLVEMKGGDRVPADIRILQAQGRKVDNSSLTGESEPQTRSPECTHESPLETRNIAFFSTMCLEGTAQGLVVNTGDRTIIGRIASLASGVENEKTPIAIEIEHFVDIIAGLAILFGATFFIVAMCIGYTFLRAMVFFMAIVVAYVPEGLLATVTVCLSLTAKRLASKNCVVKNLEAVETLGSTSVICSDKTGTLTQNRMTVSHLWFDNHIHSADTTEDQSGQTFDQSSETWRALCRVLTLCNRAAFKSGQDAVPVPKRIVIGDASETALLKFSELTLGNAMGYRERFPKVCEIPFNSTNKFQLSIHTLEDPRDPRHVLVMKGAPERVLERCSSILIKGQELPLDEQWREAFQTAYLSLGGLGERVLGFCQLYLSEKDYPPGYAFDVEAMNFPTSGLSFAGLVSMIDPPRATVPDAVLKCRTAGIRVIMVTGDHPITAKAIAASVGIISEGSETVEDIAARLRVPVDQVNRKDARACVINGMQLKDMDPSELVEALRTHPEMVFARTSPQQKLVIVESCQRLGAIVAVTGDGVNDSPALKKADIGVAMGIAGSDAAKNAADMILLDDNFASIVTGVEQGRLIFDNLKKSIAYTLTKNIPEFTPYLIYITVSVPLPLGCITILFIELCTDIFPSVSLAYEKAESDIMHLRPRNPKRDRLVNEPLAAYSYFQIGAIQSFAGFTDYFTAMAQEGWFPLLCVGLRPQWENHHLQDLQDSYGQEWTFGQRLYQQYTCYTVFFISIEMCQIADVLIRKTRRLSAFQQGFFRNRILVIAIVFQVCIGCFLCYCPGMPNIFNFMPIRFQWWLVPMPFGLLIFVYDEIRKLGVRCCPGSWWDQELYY
Sequence of H^+,K^+-ATPase L796F (P18434 whole entry partner): as the sequence (P18434 whole entry partner) above

-fold increase in K i compared with wild-type (H^+,K^+-ATPase D137E): 9.8 fold
Ki (H^+,K^+-ATPase D137E; high H^+-ATPase activity, K i' determined by K m/V max plot): 57 ± 16 nM
Ki (H^+,K^+-ATPase D136F): 5.9 ± 0.7 nM
-fold increase in K i compared with wild-type (H^+,K^+-ATPase D136F; D136F): 1.0 fold
Ki (H^+,K^+-ATPase D137A): 81 ± 13 nM
-fold increase in K i compared with wild-type (H^+,K^+-ATPase D137A; D137A): 14 fold
Ki (H^+,K^+-ATPase D137F): 640 ± 110 nM
-fold increase in K i compared with wild-type (H^+,K^+-ATPase D137F; D137F): 110 fold
Ki (H^+,K^+-ATPase N138I): 34 ± 8 nM
-fold increase in K i compared with wild-type (H^+,K^+-ATPase N138I; N138I): 5.9 fold
Ki (H^+,K^+-ATPase L139I): 2.6 ± 0.2 nM
-fold increase in K i compared with wild-type (H^+,K^+-ATPase L139I; L139I): 0.4 fold
Ki (H^+,K^+-ATPase L139F): 18 ± 3 nM
-fold increase in K i compared with wild-type (H^+,K^+-ATPase L139F; L139F): 3.1 fold
Ki (H^+,K^+-ATPase Y140A): 25 ± 3 nM
-fold increase in K i compared with wild-type (H^+,K^+-ATPase Y140A; Y140A): 4.3 fold
Ki (H^+,K^+-ATPase Y140L): 5.3 ± 0.4 nM
-fold increase in K i compared with wild-type (H^+,K^+-ATPase Y140L; Y140L): 0.9 fold
Ki (H^+,K^+-ATPase Y140I): 4.3 ± 0.5 nM
-fold increase in K i compared with wild-type (H^+,K^+-ATPase Y140I; Y140I): 0.7 fold
Ki (H^+,K^+-ATPase L141I): 8.4 ± 1.5 nM
-fold increase in K i compared with wild-type (H^+,K^+-ATPase L141I; L141I): 1.4 fold
Ki (H^+,K^+-ATPase A125S): 27 ± 2 nM
-fold increase in K i compared with wild-type (H^+,K^+-ATPase A125S; A125S): 4.6 fold
Ki (H^+,K^+-ATPase A125F): 12 ± 1 nM
-fold increase in K i compared with wild-type (H^+,K^+-ATPase A125F; A125F): 2.1 fold
Ki (H^+,K^+-ATPase Q127F): 41 ± 7 nM
-fold increase in K i compared with wild-type (H^+,K^+-ATPase Q127F; Q127F): 7.1 fold
Ki (H^+,K^+-ATPase D137N): 450 ± 100 nM
-fold increase in K i compared with wild-type (H^+,K^+-ATPase D137N; D137N): 78 fold
fold lower affinity than WT (H^+,K^+-ATPase D137N; D137N vs WT): more than 60 fold
Ki (H^+,K^+-ATPase A335V): > 1000 nM
-fold increase in K i compared with wild-type (H^+,K^+-ATPase A335V; A335V): > 170 fold
Ki (H^+,K^+-ATPase Y799A): > 1000 nM
-fold increase in K i compared with wild-type (H^+,K^+-ATPase Y799A; Y799A): > 170 fold
Ki (H^+,K^+-ATPase V331F): 15 ± 2 nM
-fold increase in K i compared with wild-type (H^+,K^+-ATPase V331F; V331F): 2.3 fold
Ki (H^+,K^+-ATPase M334F): 16 ± 4 nM
-fold increase in K i compared with wild-type (H^+,K^+-ATPase M334F; M334F): 2.8 fold
Ki (H^+,K^+-ATPase L796F): 106 ± 10 nM
-fold increase in K i compared with wild-type (H^+,K^+-ATPase L796F; L796F): 18 fold
Ki [1]: > 1000 nM
-fold increase in K i compared with wild-type ([1]; A335C/C813A): > 170 fold
Compound: Cc1nc2c3c(ccn2c1C)[C@@H](O)[C@H](O)[C@@H](c1ccccc1)N3 [BYK99]

Reference: PMC5529566, “The cryo-EM structure of gastric H^+,K^+-ATPase with bound BYK99, a high-affinity member of K^+-competitive, imidazo[1,2-a]pyridine inhibitors” (Scientific Reports, 2017)
